Measured values published in patent publication US20050288347A1, “Certain triazole-based compounds, compositions, and uses thereof” (priority 2004, published 2005).
“Also recorded” adds a separate entry of the source. Each block holds one molecule with its values, some of them ahead of it.

Tested on: protein kinase
Test: HTS ATP-utilizing enzyme assay, off-chip mobility-shift format (Caliper HTS 250)
Format: biochemical, human
Conditions: test compound 10 μM; for protein kinase against which the compound exhibits inhibitory activity (Table 3): active = activity greater than three-sigma from the mean of the predominately inactive population for that enzyme; for Kinase: kinase(s) for which the compound exhibits protein kinase inhibitory activity, active = greater than three-sigma from the mean activity of inactive compounds
How it was run: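 Single-point screen at 10 μM compound in HEPES pH 7.5 buffer with Triton X-100 and BSA, 2.5 h at 20–22 °C. Substrate-to-phosphopeptide ratio measured by off-chip microfluidic mobility shift; EDTA wells as 100% and DMSO wells as 0% control, hits called at three-sigma limits.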

SMILES: COc1ccc(-c2nnc(SCCN3CCCCC3)[nH]2)cc1 [1-(2-(5-(4-methoxyphenyl)-4H-1,2,4-triazol-3-ylthio)ethyl)piperidine]
protein kinase against which the compound exhibits inhibitory activity (Table 3): GSK3-α; also recorded: DYRK2; also recorded: GSK3-β

SMILES: CCOC(=O)CSc1nnc(CSc2nc3ccccc3s2)n1C
Kinase: CSK

SMILES: Cn1c(COc2ccc([N+](=O)[O-])cc2)nnc1SCC(=O)Nc1sc2c(c1C(N)=O)CCCC2
Kinase: GSK3-β; also recorded: GSK3-α; also recorded: AURORA-A

SMILES: COc1ccc(-n2c(CNc3cc(C(F)(F)F)ccc3Cl)nnc2SCC#N)cc1
Kinase: CDK1

SMILES: CCOC(=O)c1ccc(NC(=O)CSc2nnc(CNc3ccc(C)cc3)n2CC)cc1
Kinase: CHEK2

SMILES: CCOc1ccc(NCc2nnc(SCC(=O)Nc3cc(C)on3)n2-c2ccccc2OC)cc1
Kinase: PDGFRR-α and FYN

SMILES: FC(F)(F)c1cccc(-c2nnc(SCC3CCCO3)[nH]2)c1 (stereo not drawn)
protein kinase against which the compound exhibits inhibitory activity (Table 3): AURORA-A

SMILES: CCOc1ccc(NCc2nnc(S)n2-c2ccc(OC)cc2)cc1
Kinase: FLT-3; also recorded: PDGFRR-α; also recorded: AURORA-A

SMILES: Cc1cccc(-c2nnc(SCC(=O)O)[nH]2)c1 [2-(5-m-tolyl-4H-1,2,4-triazol-3-ylthio)acetic acid]
Kinase: GSK3-β; also recorded: DYRK2; also recorded: AURORA-A

SMILES: CCn1c(SCC(=O)c2cc(OC)ccc2OC)nnc1C(C)C
Kinase: PDGFRR-α and FLT-3 and FYN

SMILES: COc1ccc(-n2c(SCC#N)nnc2-c2ccc(NS(=O)(=O)c3ccc(C)cc3)cc2)cc1
Kinase: CDK2-cyclinA and CDK1 and CDK2-cyclinE

SMILES: OCC(O)CSc1nnc(CCc2ccccc2)[nH]1 (stereo not drawn)
protein kinase against which the compound exhibits inhibitory activity (Table 3): GSK3-α

SMILES: CCn1c(COc2cccc(C)c2)nnc1SCC(=O)N1CCCCC1
Kinase: FYN

SMILES: Cc1nnc(SCC(=O)Nc2cccc(N)c2)n1-c1ccccc1
Kinase: FYN

SMILES: Cc1ccc(-n2c(COc3cccc4ccccc34)nnc2SC(C)C(=O)O)cc1 (stereo not drawn)
Kinase: AKT1

SMILES: Clc1ccc(CSc2nnc(-c3ccncc3)n2Cc2ccco2)cc1
protein kinase against which the compound exhibits inhibitory activity (Table 3): MSK1 and MSK2 and AKT3

SMILES: Cc1nnc(SCCc2ccccc2)[nH]1 [3-methyl-5-(phenethylthio)-4H-1,2,4-triazole]
protein kinase against which the compound exhibits inhibitory activity (Table 3): AURORA-A; also recorded: GSK3-β

SMILES: COCCn1c(SCC(=O)Nc2ccc3c(c2)OCO3)nnc1-c1cc2ccccc2cc1O
Kinase: AURORA-A

SMILES: COc1ccc(-c2nnc(SCC(=O)N3CCOCC3)n2-c2ccccc2)cc1OC
Kinase: AKT1

SMILES: Cn1c(SCC(=O)N2CCOCC2)nnc1-c1ccc(O)cc1
Kinase: AURORA-A

SMILES: COc1ccc(CCn2c(CCC3CCCC3)nnc2SCC=C(C)C)cc1OC
protein kinase against which the compound exhibits inhibitory activity (Table 3): GSK3-β; also recorded: GSK3-α

SMILES: c1ccc(CCn2c(SCc3ccccc3)nnc2-c2cccnc2)cc1 [3-(5-(benzylthio)-4-phenethyl-4H-1,2,4-triazol-3-yl)pyridine]
protein kinase against which the compound exhibits inhibitory activity (Table 3): MSK1

SMILES: CCn1c(CNc2ccccc2Cl)nnc1SCC(=O)NNC(=O)c1ccc(OC)cc1
protein kinase against which the compound exhibits inhibitory activity (Table 3): AURORA-A; also recorded: DYRK2

SMILES: C=CCn1c(S)nnc1COc1ccc(Cl)cc1 [4-allyl-5-((4-chlorophenoxy)methyl)-4H-1,2,4-triazole-3-thiol]
Kinase: GSK3-α

SMILES: Cc1ccc(CSc2nnc(-c3ccncc3)n2-c2ccccc2)cc1 [4-(5-(4-methylbenzylthio)-4-phenyl-4H-1,2,4-triazol-3-yl)pyridine]
protein kinase against which the compound exhibits inhibitory activity (Table 3): AURORA-A

SMILES: CCn1c(SCc2ccc(C(C)(C)C)cc2)nnc1-c1cccnc1 [3-(5-(4-tert-butylbenzylthio)-4-ethyl-4H-1,2,4-triazol-3-yl)pyridine]
protein kinase against which the compound exhibits inhibitory activity (Table 3): MAPKAPK-2

SMILES: CCOc1ccc(NC(=O)CSc2nnc(-c3ccc(O)cc3)n2-c2ccccc2)cc1
Kinase: HCK

SMILES: CCC(c1ccccc1)c1nnc(SCc2ccccc2)n1CCc1ccc(C)cc1 (stereo not drawn) [3-(benzylthio)-4-(4-methylphenethyl)-5-(1-phenylpropyl)-4H-1,2,4-triazole]
protein kinase against which the compound exhibits inhibitory activity (Table 3): c-TAK1

SMILES: N#CCSc1nnc(-c2cccnc2)n1-c1ccccc1 [2-(4-phenyl-5-(pyridin-3-yl)-4H-1,2,4-triazol-3-ylthio)acetonitrile]
Kinase: AURORA-A

SMILES: Cc1ccc(NCc2nnc(SCC#N)n2-c2ccc(Cl)cc2)cc1
Kinase: PDGFRR-α and CDK1

SMILES: Cn1c(SCC(=O)Nc2cccc(O)c2)nnc1-c1ccco1
Kinase: CSK

SMILES: COc1ccc(NCc2nnc(SCC(=O)Nc3ccc(C(C)=O)cc3)n2-c2ccc(OC)cc2)cc1
Kinase: PDGFRR-α and FYN and c-TAK1

SMILES: COc1ccc(-n2c(COc3ccc4ccccc4c3)nnc2SCCN2CCOCC2)cc1
protein kinase against which the compound exhibits inhibitory activity (Table 3): CDK2-cyclinE

SMILES: CCn1c(SCC(=O)N(C(C)C)C(C)C)nnc1-c1cc2ccccc2cc1O
Kinase: c-TAK1

SMILES: COc1ccccc1-n1c(SCC(=O)O)nnc1-c1cccnc1
Kinase: AURORA-A

SMILES: CC(Sc1nnc(COc2ccccc2)n1C)C(=O)O (stereo not drawn) [2-(4-methyl-5-(phenoxymethyl)-4H-1,2,4-triazol-3-ylthio)propanoic acid]
Kinase: AURORA-A

SMILES: COc1ccc(-c2nnc(SCC(=O)N3CCOCC3)n2-c2ccccc2)cc1
Kinase: INSR and PRAK

SMILES: COc1ccccc1-n1c(SCC(=O)OCc2ccccc2)nnc1-c1ccco1
Kinase: GSK3-α; also recorded: AURORA-A

SMILES: CC(=O)c1ccc(-n2c(SCCCCc3ccccc3)nnc2-c2cccc(Cl)c2)cc1
protein kinase against which the compound exhibits inhibitory activity (Table 3): INSR

SMILES: O=C(O)CSc1nnc(-c2cccs2)[nH]1 [2-(5-(thiophen-2-yl)-4H-1,2,4-triazol-3-ylthio)acetic acid]
Kinase: DYRK2; also recorded: GSK3-β; also recorded: GSK3-α

SMILES: CCn1c(SCC(=O)Nc2nc(C)cs2)nnc1-c1ccc(S(=O)(=O)N2CCN(C)CC2)cc1
Kinase: FYN

SMILES: CNC(=O)CSc1nnc(-c2cc3ccccc3cc2O)n1C
Kinase: FYN

SMILES: COCCn1c(SCCN2CCOCC2)nnc1-c1cc2ccccc2cc1O
protein kinase against which the compound exhibits inhibitory activity (Table 3): CHEK2

SMILES: OCC(O)CSc1nnc(-c2ccc(OC(F)(F)F)cc2)[nH]1 (stereo not drawn)
protein kinase against which the compound exhibits inhibitory activity (Table 3): AURORA-A; also recorded: FLT-3; also recorded: DYRK2

SMILES: CCn1c(SCC(=O)Nc2nccs2)nnc1-c1ccccc1 [2-(4-ethyl-5-phenyl-4H-1,2,4-triazol-3-ylthio)-N-(thiazol-2-yl)acetamide]
Kinase: GSK3-β; also recorded: GSK3-α; also recorded: CHEK2

Other lines, results leading:

protein kinase against which the compound exhibits inhibitory activity (Table 3): PDGFRR-α and FYN and FLT-3
SMILES: CCn1c(CNc2ccc(OC)cc2)nnc1SCc1c(F)cccc1Cl

Kinase: AURORA-A
SMILES: CCOC(=O)CSc1nnc(-c2ccccc2O)n1-c1ccccc1OC

Kinase: PDGFRR-α
SMILES: CCOC(=O)CN(C(=O)CSc1nnc(-c2ccncc2)n1-c1ccccc1)c1ccccc1

protein kinase against which the compound exhibits inhibitory activity (Table 3): DYRK2
SMILES: COCCCn1c(SCc2ccc(C(C)(C)C)cc2)nnc1-c1ccncc1

Kinase: SRC
SMILES: CCn1c(SCC(=O)N(c2ccccc2)c2ccccc2)nnc1-c1ccc(O)cc1

Kinase: AURORA-A
SMILES: Cc1cccc(OCc2nnc(SC(C)C(=O)O)n2C)c1 (stereo not drawn) [2-(4-methyl-5-(m-tolyloxymethyl)-4H-1,2,4-triazol-3-ylthio)propanoic acid]

Kinase: SGK1 and CDK1
SMILES: O=C(CSc1nnc(COc2cccc3cccnc23)n1-c1ccccc1)Nc1ccccc1

Kinase: PDGFRR-α
SMILES: CCn1c(CNc2ccc(C)c(Cl)c2)nnc1SCC(=O)O

Kinase: GSK3-β; also recorded: GSK3-α
SMILES: CCn1c(S)nnc1CNc1cccc(Cl)c1 [5-((3-chlorophenylamino)methyl)-4-ethyl-4H-1,2,4-triazole-3-thiol]

Kinase: CHEK2
SMILES: COc1ccc(-n2c(SCC(=O)O)nnc2-c2ccc(NC(=O)c3ccccc3)cc2)cc1

protein kinase against which the compound exhibits inhibitory activity (Table 3): AURORA-A
SMILES: COc1ccc(Cc2nnc(SCc3cccc4ccccc34)[nH]2)cc1 [3-(4-methoxybenzyl)-5-(naphthalen-1-ylmethylthio)-4H-1,2,4-triazole]

Kinase: DAPK1
SMILES: O=C(O)CSc1nnc(CNc2ccc(F)cc2)n1Cc1ccccc1

protein kinase against which the compound exhibits inhibitory activity (Table 3): ROCK2
SMILES: COc1ccccc1-n1c(SCCO)nnc1-c1cccc(Cl)c1 [2-(5-(3-chlorophenyl)-4-(2-methoxyphenyl)-4H-1,2,4-triazol-3-ylthio)ethanol]

Kinase: CDK2-cyclinA and CDK2-cyclinE and CDK1
SMILES: COc1ccc(-n2c(SCC(=O)O)nnc2-c2ccc(NS(=O)(=O)c3ccc(C)cc3)cc2)cc1

Kinase: GSK3-α
SMILES: O=C(CSc1nnc(-c2ccc(O)cc2)n1-c1ccccc1)c1ccccc1

protein kinase against which the compound exhibits inhibitory activity (Table 3): GSK3-β and GSK3-α and MSK1
SMILES: Cn1c(SCc2ccccc2)nnc1-c1ccc(O)cc1 [4-(5-(benzylthio)-4-methyl-4H-1,2,4-triazol-3-yl)phenol]

Kinase: GSK3-α; also recorded: AURORA-A
SMILES: Cc1ccc(-n2c(S)nnc2CNc2ccc(C)c(Cl)c2)cc1

Kinase: DYRK2; also recorded: CDK2-cyclinE
SMILES: COc1ccc(NCc2nnc(SCC(=O)Nc3sc4c(c3C#N)CCCC4)n2C)cc1

Kinase: GSK3-β; also recorded: GSK3-α
SMILES: CCn1c(S)nnc1CCc1nc2ccccc2[nH]1 [5-(2-(1H-benzo[d]imidazol-2-yl)ethyl)-4-ethyl-4H-1,2,4-triazole-3-thiol]

Kinase: AURORA-A
SMILES: COc1ccc(-n2c(SCC(=O)O)nnc2-c2cccnc2)cc1

Kinase: AURORA-A
SMILES: COc1ccc(-n2c(SC(C)C(=O)O)nnc2-c2ccccc2)cc1 (stereo not drawn) [2-(4-(4-methoxyphenyl)-5-phenyl-4H-1,2,4-triazol-3-ylthio)propanoic acid]

Kinase: DAPK1
SMILES: CCn1c(SCC(=O)Nc2cc(C)ccc2OC)nnc1-c1ccc(S(=O)(=O)N2CCCCCC2)cc1

protein kinase against which the compound exhibits inhibitory activity (Table 3): AURORA-A
SMILES: CC(C)Cc1nnc(SCc2ccccc2)n1Cc1ccc(Cl)c(Cl)c1 [3-(benzylthio)-4-(3,4-dichlorobenzyl)-5-isobutyl-4H-1,2,4-triazole]

Kinase: CDK1 and AURORA-A
SMILES: C=CCn1c(SCC(=O)Nc2sc3c(c2C(=O)OCC)CCC3)nnc1-c1ccncc1
